Target: T1, α1 homomeric glycine receptors (Rattus norvegicus, UniProt P07727)
T1 construct: expressed in transfected cells; host or cells: HEK 293 (transient transfection by electroporation, cDNA in pCIS2 vector)
T1 sequence (P07727 29-457): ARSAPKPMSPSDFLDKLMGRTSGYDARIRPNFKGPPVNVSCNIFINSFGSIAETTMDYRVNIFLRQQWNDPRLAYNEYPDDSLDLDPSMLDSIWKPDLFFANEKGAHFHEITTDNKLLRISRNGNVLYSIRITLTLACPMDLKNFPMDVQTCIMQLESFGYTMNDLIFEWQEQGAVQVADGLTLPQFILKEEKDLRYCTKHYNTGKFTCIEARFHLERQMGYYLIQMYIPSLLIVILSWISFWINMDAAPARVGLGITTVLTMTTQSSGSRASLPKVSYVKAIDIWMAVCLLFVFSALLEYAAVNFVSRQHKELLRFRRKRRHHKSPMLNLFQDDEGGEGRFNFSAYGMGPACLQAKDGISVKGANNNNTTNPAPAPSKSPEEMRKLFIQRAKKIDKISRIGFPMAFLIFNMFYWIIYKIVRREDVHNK
Assay: Whole-cell patch-clamp, Cl- current activated via α1 homomeric glycine receptors in transfected HEK 293 cells
Type: cell-based
Description: Cells were cultured in Dulbecco's modified Eagle's medium (DMEM, Biochrom, Berlin, Germany), supplemented with 10% fetal calf serum (FCS, Biochrom, Berlin, Germany), 100 U ml^−1 penicillin and 100 μg ml^−1 streptomycin at 37° C. in a 5% CO2/air incubator. […] For co-transfection of rat α1 glycine receptor subunits, the corresponding cDNA, each subcloned in the pCIS2 expression vector (Invitrogen, San Diego, USA), was added to the suspension. To visualize transfected cells, they were co-transfected with cDNA of green fluorescent protein (GFP 10 μg ml^−1). For transfection, we used an electroporation device by EquiBio (Kent, UK).
The compounds according to the present invention under investigation were prepared as 1 M stock solution in ethanol, light-protected and stored in glass vessels at −20° C. Concentrations were calculated from the amount injected into the glass vials. Drug-containing vials were vigorously vortexed for 60 min. Glycine and picrotoxin were dissolved directly in bath solution.
Patch electrodes contained [mM] KCl 140, MgCl2 2, EGTA 11, HEPES 10, glucose 10; the bath solution contained [mM]
A tight electrical seal of several GΩ formed between the cell membrane and a patch-clamp electrode allows inward currents due to agonist-induced channel activation to resolve in the pA range. Electrical resistance of the pipettes was around 5 MΩ, corresponding to a total access resistance in the whole-cell configuration of about 10 MΩ. The compounds according to the present invention under investigation were applied to the cells via a smooth liquid filament achieved with a single outflow (glass tubing 0.15 mm inner diameter) connected to a piezo crystal. The cells were placed at the interface between this filament and the continuously flowing background solution. When a voltage pulse was applied to the piezo, the tube was moved up and down onto or away from the cell under investigation. Correct positioning of the cell in respect to the liquid filament was ensured applying a saturating (1000 μM) glycine pulse before and after each test experiment. Care was taken to ensure that the amplitude and the shape of the glycine-activated current had stabilized before proceeding with the experiment. Test solution and glycine (1000 μM) were applied via the same glass-polytetrafluoroethylen perfusion system, but from separate reservoirs. The contents of these reservoirs were mixed at a junction immediately before entering the superfusion chamber.
The compounds under test were applied alone in order to determine their direct agonistic effects. A new cell was used for each compound and each protocol, at least three different experiments were performed for each setting. The amount of the diluent ethanol corresponding to the highest compound concentration used was 34 000 μM.
For data acquisition and further analysis the inventors used the Axopatch 200B amplifier in combination with pClamp6 software (Axon Instruments, Union City, Calif., USA). Currents were filtered at 2 kHz. Fitting procedures were performed using a non-linear least-squares Marquardt-Levenberg algorithm. Details are provided in the appropriate figure legends or in the results section.
Activated currents were normalized to their own maximum response. The dose-response-curves were fitted according to (Inorm=[1+(EC50/[C])^nH]^−1), where Inorm is the current induced directly by the respective concentration [C] of the compound, normalized to the maximum inward current.

[1] = EC50 (nM), α1 homomer, initial tests, Hill fit to normalised response, rat α1 receptors in HEK 293

| Structure (SMILES) | EC50 [1] [nM] | nH (Hill coefficient), α1 homomer (initial tests, Hill fit to normalised response) | EC50 (EC50, further series of tests (later tests)) [nM] |
| --- | --- | --- | --- |
| CC(C)c1cc(-c2ccc(Cl)cc2)cc(C(C)C)c1O [4-(p-Cl—Ph)-propofol, 4-(para-Chlorophenyl)-propofol] | 0.2 ± 0.3 | 1.1 ± 0.5 |  |
| CC(C)c1cc(-c2ccc(Cl)c(F)c2)cc(C(C)C)c1O [p-(3-F,4-Cl—Ph)-propofol, Para-(3-Fluoro,4-chlorophenyl)-propofol] | 0.8 |  | 0.07 |
